For one molecule, Kd results are on record in article PMC5674511, “Increase of enzyme activity through specific covalent modification with fragments” (Chemical Science, 2017).

Each structure is given as a SMILES string.

Assay [1] addresses T1, BtGH84 (Bacteroides thetaiotaomicron, UniProt Q89ZI2).
T1 construct: gene BT_4395; recombinant purified enzyme
T1 sequence (Q89ZI2 22-737): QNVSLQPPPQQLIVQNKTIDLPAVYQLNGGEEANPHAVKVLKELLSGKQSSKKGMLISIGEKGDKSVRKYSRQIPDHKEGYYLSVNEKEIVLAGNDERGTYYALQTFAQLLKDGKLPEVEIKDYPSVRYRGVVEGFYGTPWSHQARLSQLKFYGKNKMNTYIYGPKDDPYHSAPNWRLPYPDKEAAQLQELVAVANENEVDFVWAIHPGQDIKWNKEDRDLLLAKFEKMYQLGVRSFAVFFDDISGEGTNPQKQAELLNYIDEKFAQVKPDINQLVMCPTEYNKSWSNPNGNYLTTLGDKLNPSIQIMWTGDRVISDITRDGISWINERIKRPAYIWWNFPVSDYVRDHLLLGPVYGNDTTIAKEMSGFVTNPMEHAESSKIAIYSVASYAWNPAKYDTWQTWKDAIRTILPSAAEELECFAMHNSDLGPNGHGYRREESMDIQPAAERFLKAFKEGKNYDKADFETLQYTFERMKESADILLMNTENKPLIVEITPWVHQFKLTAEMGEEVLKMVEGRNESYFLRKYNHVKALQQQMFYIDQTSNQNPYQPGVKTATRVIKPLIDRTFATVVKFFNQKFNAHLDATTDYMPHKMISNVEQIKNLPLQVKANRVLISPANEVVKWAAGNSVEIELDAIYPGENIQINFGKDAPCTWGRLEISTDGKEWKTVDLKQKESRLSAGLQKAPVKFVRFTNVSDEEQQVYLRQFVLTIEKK
Description: binding constant; method not stated in main text. Particulars: read-out: BtGH84 / None. From the text:
(§1) binding constant; method not stated in main text on BtGH84

Assay [2] has as its target T2, BtGH84 (Bacteroides thetaiotaomicron, UniProt Q89ZI2, C441S/C675S/Y571C).
T2 construct: gene BT_4395; recombinant purified enzyme
T2 sequence (Q89ZI2 22-737 C441S/Y571C/C675S): T1 sequence (Q89ZI2 22-737)
Description: binding constant; method not stated in main text. Particulars: read-out: BtGH84_TM / None.
Source text: as §1

Regarding `CCNC1=N[C@@H]2[C@@H](O)[C@H](O)[C@@H](CO)O[C@@H]2S1` [compound 2, thiamet-G], the figures for the Kd on BtGH84 [1] and at BtGH84 [2] were 50 nM and 52 ± 5.7 nM, respectively.
